According to patent publication US20200361871A1 (Enterprise Therapeutics Ltd., priority 2018, published 2020):

Target: human TMEM16A (TMEM16Aabc variant) (Homo sapiens, UniProt Q5XXA6, DEL476-501, form not given)
Assay: Automated whole-cell patch clamp (Qpatch) TMEM16A potentiator assay in FRT cells stably expressing human TMEM16A
Assay type: cell-based
Conditions: for % Potentiation @ 3.33 μM Avg: 3.33 μM solution of test compound, percentage increase of baseline TMEM16A current; for EC50: calculated EC50, Qpatch TMEM16A current at +70 mV
In short: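 FRT cells stably expressing human TMEM16Aabc were recorded by automated whole-cell patch clamp, with intracellular Ca2+ buffered for ~EC20 activation, holding −70 mV and step to +70 mV at 0.05 Hz. Compound was applied cumulatively, 5 min per concentration. Peak current increase as % of baseline was fitted to give EC50 and maximum efficacy.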

Chain of human TMEM16A (TMEM16Aabc variant) (Q5XXA6 with tags, fused parts or gaps DEL476-501): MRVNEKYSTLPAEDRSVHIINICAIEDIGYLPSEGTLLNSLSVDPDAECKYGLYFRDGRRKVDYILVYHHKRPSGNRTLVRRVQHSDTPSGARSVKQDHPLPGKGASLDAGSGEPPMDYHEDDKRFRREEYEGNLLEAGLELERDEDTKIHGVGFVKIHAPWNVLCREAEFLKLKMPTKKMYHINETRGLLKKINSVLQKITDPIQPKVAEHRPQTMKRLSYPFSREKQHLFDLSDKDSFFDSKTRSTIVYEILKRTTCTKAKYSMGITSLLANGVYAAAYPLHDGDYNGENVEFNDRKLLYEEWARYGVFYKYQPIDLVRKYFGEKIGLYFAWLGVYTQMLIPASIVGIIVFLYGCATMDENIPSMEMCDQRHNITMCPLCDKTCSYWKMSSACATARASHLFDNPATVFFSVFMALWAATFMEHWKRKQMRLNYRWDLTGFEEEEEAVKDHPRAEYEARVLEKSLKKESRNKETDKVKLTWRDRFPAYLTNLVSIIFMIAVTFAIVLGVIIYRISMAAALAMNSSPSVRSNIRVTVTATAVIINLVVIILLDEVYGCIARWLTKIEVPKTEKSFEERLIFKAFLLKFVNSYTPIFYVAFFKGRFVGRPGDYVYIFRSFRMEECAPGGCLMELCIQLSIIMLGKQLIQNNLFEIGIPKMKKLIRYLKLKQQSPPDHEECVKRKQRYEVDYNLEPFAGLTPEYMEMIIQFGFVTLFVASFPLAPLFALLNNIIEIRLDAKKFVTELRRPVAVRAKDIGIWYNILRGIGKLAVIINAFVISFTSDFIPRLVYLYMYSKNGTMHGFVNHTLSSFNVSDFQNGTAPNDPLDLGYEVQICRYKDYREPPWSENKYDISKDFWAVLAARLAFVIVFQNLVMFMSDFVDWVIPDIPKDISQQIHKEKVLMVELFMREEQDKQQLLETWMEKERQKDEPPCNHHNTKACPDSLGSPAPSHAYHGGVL

| Structure (SMILES) | % Potentiation @ 3.33 μM Avg | EC50 |
| --- | --- | --- |
| CC(C)(C)NCc1cc(O)c(CC(=O)Nc2ccnc(C(=O)NC(C)(C)C)c2)cc1Cl [Example 27.1, N-tert-Butyl-4-[[2-[4-[(tert-butylamino)methyl]-5-chloro-2-hydroxy-phenyl]acetyl]amino]pyridine-2-carboxamide] | 52% |  |
| CC(C)(C)NC(=O)c1cc(NC(=O)Cc2cc(Cl)c(CN3CCOCC3)cc2O)ccn1 [Example 27.2, N-tert-Butyl-4-[[2-[5-chloro-2-hydroxy-4-(morpholinomethyl)phenyl]acetyl]amino]pyridine-2-carboxamide] | 300% |  |
| CC(C)(C)NC(=O)c1cc(NC(=O)Cc2cc(Cl)c(CN3CCC(F)(F)C3)cc2O)ccn1 [Example 27.3, N-tert-Butyl-4-[[2-[5-chloro-4-[(3,3-difluoropyrrolidin-1-yl)methyl]-2-hydroxy-phenyl]acetyl]amino]pyridine-2-carboxamide] | 166% | 290 nM |
| CC(C)(C)NC(=O)c1cc(NC(=O)Cc2cc(Cl)ccc2O)c(F)cn1 [Example 28, N-tert-butyl-4-[[2-(5-chloro-2-hydroxy-phenyl)acetyl]amino]-5-fluoro-pyridine-2-carboxamide] | 318% | 400 nM |
| CC(C)(C)NC(=O)c1nccc(NC(=O)Cc2cc(Cl)ccc2O)c1F [Example 28.1, N-tert-Butyl-4-[[2-(5-chloro-2-hydroxy-phenyl)acetyl]amino]-3-fluoro-pyridine-2-carboxamide] | 68% |  |
| N#CC1(NC(=O)c2cc(NC(=O)Cc3ccccc3Cl)ccn2)CCC1 [Example 30, 4-[[2-(2-Chlorophenyl)acetyl]amino]-N-(1-cyanocyclobutyl)pyridine-2-carboxamide] | 113% | 1220 nM |
| C#CC(C)(C)NC(=O)c1cc(NC(=O)Cc2ccccc2Cl)ccn1 [Example 30.1, 4-[[2-(2-Chlorophenyl)acetyl]amino]-N-(1,1-dimethylprop-2-ynyl)pyridine-2-carboxamide] | 245% | 140 nM |
| O=C(Cc1ccccc1Cl)Nc1ccnc(C(=O)NC23CCC(F)(C2)C3)c1 [Example 30.2, 4-[[2-(2-Chlorophenyl)acetyl]amino]-N-(4-fluoro-1-bicyclo[2.1.1]hexanyl)pyridine-2-carboxamide] | 221% | 180 nM |
| CC(C)(NC(=O)c1cc(NC(=O)Cc2ccccc2Cl)ccn1)C1CC1 [Example 30.3, 4-[[2-(2-Chlorophenyl)acetyl]amino]-N-(1-cyclopropyl-1-methyl-ethyl)pyridine-2-carboxamide] | 100% | 250 nM |
| CC(C)(C#N)NC(=O)c1cc(NC(=O)Cc2ccccc2Cl)ccn1 [Example 30.3a, 4-[[2-(2-Chlorophenyl)acetyl]amino]-N-(1-cyano-1-methyl-ethyl)pyridine-2-carboxamide] | 221% |  |
| CC12CC(NC(=O)c3cc(NC(=O)Cc4ccccc4Cl)ccn3)(C1)C2 [Example 30.4, 4-[[2-(2-Chlorophenyl)acetyl]amino]-N-(1-methyl-3-bicyclo[1.1.1]pentanyl)pyridine-2-carboxamide] | 95% | 750 nM |
| N#CC12CC(NC(=O)c3cc(NC(=O)Cc4ccccc4Cl)ccn3)(C1)C2 [Example 30.5, 4-[[2-(2-Chlorophenyl)acetyl]amino]-N-(1-cyano-3-bicyclo[1.1.1]pentanyl) pyridine-2-carboxamide] | 63% |  |
| O=C(Cc1ccccc1Cl)Nc1ccnc(C(=O)NC2CC2(F)F)c1 (stereo not shown) [Example 30.6, 4-[[2-(2-Chlorophenyl)acetyl]amino]-N-(2,2-difluorocyclopropyl)pyridine-2-carboxamide] | 80% |  |
| N#CC1(NC(=O)c2cc(NC(=O)Cc3ccccc3Cl)ccn2)CC1 [Example 30.7, 4-[[2-(2-Chlorophenyl)acetyl]amino]-N-(1-cyanocyclopropyl)pyridine-2-carboxamide] | 124% | 340 nM |
| CC1(NC(=O)c2cc(NC(=O)Cc3ccccc3Cl)ccn2)CC1 [Example 30.8, 4-[[2-(2-Chlorophenyl)acetyl]amino]-N-(1-methylcyclopropyl)pyridine-2-carboxamide] | 121% | 700 nM |
| O=C(Cc1ccccc1Cl)Nc1ccnc(C(=O)NC23CC(F)(C2)C3)c1 [Example 30.9, 4-[[2-(2-Chlorophenyl)acetyl]amino]-N-(3-fluoro-1-bicyclo[1.1.1]pentanyl)pyridine-2-carboxamide] | 100% | 470 nM |

| Structure (SMILES) | % Potentiation @ 3.33 μM Avg | EC50 |
| --- | --- | --- |
| CC(C)(CF)NC(=O)c1cc(NC(=O)Cc2ccccc2Cl)ccn1 [Example 30.10, 4-[[2-(2-Chlorophenyl)acetyl]amino]-N-(2-fluoro-1,1-dimethyl-ethyl)pyridine-2-carboxamide] | 265% |  |
| C#CC1(NC(=O)c2cc(NC(=O)Cc3ccccc3Cl)ccn2)CCOCC1 [Example 30.11, 4-[[2-(2-Chlorophenyl)acetyl]amino]-N-(4-ethynyltetrahydropyran-4-yl)pyridine-2-carboxamide] | 125% | 220 nM |
| N#CC1(NC(=O)c2cc(NC(=O)Cc3ccccc3Cl)ccn2)CCCC1 [Example 30.12, 4-[[2-(2-Chlorophenyl)acetyl]amino]-N-(1-cyanocyclopentyl)pyridine-2-carboxamide] | 314% |  |
| CC(C)(NC(=O)c1cc(NC(=O)Cc2ccccc2Cl)ccn1)C(F)F [Example 30.13, 4-[[2-(2-Chlorophenyl)acetyl]amino]-N-(2,2-difluoro-1,1-dimethyl-ethyl)pyridine-2-carboxamide] | 205% | 380 nM |
| N#CC1(NC(=O)c2cc(NC(=O)Cc3cc(Cl)ccc3O)ccn2)CCOCC1 [Example 31, 4-[[2-(5-Chloro-2-hydroxy-phenyl)acetyl]amino]-N-(4-cyanotetrahydropyran-4-yl)pyridine-2-carboxamide] | 223% | 120 nM |
| C#CC1(NC(=O)c2cc(NC(=O)Cc3cc(Cl)ccc3O)ccn2)CCCC1 [Example 31.2, 4-[[2-(5-Chloro-2-hydroxy-phenyl)acetyl]amino]-N-(1-ethynylcyclopentyl)pyridine-2-carboxamide] | 110% | 10 nM |
| O=C(Cc1cc(Cl)ccc1O)Nc1ccnc(C(=O)N[C@H]2CCCC[C@@H]2O)c1 [Example 31.3, 4-[2-(5-Chloro-2-hydroxyphenyl)acetamido]-N-[(1s,2s)-2-hydroxycyclohexyl] pyridine-2-carboxamide] | 205% | 210 nM |
| C#CC1(NC(=O)c2cc(NC(=O)Cc3cc(Cl)ccc3O)ccn2)CCOCC1 [Example 31.4, 4-[[2-(5-Chloro-2-hydroxy-phenyl)acetyl]amino]-N-(4-ethynyltetrahydropyran-4-yl)pyridine-2-carboxamide] | 186% | 20 nM |
| Nc1cccc(CNC(=O)c2cc(NC(=O)Cc3cc(Cl)ccc3O)ccn2)n1 [Example 32, N-[(6-Amino-2-pyridyl)methyl]-4-[[2-(5-chloro-2-hydroxy-phenyl)acetyl]amino]pyridine-2-carboxamide] | 171% |  |
| O=C(O)CCCCCCCCCCCNC(=O)c1cc(NC(=O)Cc2cc(Cl)ccc2O)ccn1 [Example 32.1, 12-[[4-[[2-(5-Chloro-2-hydroxy-phenyl)acetyl]amino]pyridine-2-carbonyl]amino]dodecanoic acid] | 246% |  |
| O=C(Cc1cc(Cl)ccc1O)Nc1ccnc(C(=O)NCc2cccnc2)c1 [Example 32.2, 4-[[2-(5-Chloro-2-hydroxy-phenyl)acetyl]amino]-N-(3-pyridylmethyl)pyridine-2-carboxamide] | 183% | 340 nM |
| O=C(Cc1cc(Cl)ccc1O)Nc1ccnc(C(=O)NCc2ccccn2)c1 [Example 32.3, 4-[[2-(5-Chloro-2-hydroxy-phenyl)acetyl]amino]-N-(2-pyridylmethyl)pyridine-2-carboxamide] | 288% | 290 nM |
| O=C(Cc1cc(Cl)ccc1O)Nc1ccnc(C(=O)NCc2ccncc2)c1 [Example 32.4, 4-[[2-(5-Chloro-2-hydroxy-phenyl)acetyl]amino]-N-(4-pyridylmethyl)pyridine-2-carboxamide] | 187% | 710 nM |
| O=C(Cc1cc(Cl)ccc1O)Nc1ccnc(C(=O)NCc2ccccc2O)c1 [Example 32.5, 4-[[2-(5-Chloro-2-hydroxy-phenyl)acetyl]amino]-N-[(2-hydroxyphenyl)methyl]pyridine-2-carboxamide] | 177% | 590 nM |
| CC(C)(CN1CCOCC1)NC(=O)c1cc(NC(=O)Cc2cc(Cl)ccc2O)ccn1 [Example 32.6, 4-[[2-(5-Chloro-2-hydroxy-phenyl)acetyl]amino]-N-(1,1-dimethyl-2-morpholino-ethyl)pyridine-2-carboxamide] | 153% | 820 nM |
